Results on ten compounds are retold here after ChEMBL document CHEMBL3414499, “Characterization of two distinct structural classes of selective aldehyde dehydrogenase 1A1 inhibitors” (J Med Chem, 2015).

pIC50: −log10 of the molar value. The source made the active and inactive calls. The calls are words filed in the database; no cut-off is given here.

Experiment [1] addresses T1, Aldehyde dehydrogenase 1A1 (Homo sapiens) (UniProt P00352).
T1 sequence (whole entry): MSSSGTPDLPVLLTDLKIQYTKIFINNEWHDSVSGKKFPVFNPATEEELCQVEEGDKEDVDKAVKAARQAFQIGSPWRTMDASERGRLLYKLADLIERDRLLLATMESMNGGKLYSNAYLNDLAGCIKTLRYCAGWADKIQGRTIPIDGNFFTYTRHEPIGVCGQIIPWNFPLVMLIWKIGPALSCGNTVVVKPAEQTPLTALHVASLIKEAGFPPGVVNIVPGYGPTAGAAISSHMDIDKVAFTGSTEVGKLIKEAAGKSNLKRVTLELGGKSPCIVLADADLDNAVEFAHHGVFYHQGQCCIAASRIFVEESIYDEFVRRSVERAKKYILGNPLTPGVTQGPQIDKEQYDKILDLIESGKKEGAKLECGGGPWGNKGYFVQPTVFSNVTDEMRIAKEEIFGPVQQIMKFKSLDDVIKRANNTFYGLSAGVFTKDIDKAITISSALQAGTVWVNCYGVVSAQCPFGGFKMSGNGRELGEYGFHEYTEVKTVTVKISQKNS
The experiment can be described thus: Inhibition of recombinant human ALDH1A1 using propionaldehyde as substrate at 100 uM preincubated for 2 mins with NAD+ followed by substrate addition by UV-Vis spectrophotometric analysis relative to control.

In experiment [2] the target is T2, Aldehyde dehydrogenase, mitochondrial (Homo sapiens, UniProt P05091).
T2 sequence (P05091 whole entry): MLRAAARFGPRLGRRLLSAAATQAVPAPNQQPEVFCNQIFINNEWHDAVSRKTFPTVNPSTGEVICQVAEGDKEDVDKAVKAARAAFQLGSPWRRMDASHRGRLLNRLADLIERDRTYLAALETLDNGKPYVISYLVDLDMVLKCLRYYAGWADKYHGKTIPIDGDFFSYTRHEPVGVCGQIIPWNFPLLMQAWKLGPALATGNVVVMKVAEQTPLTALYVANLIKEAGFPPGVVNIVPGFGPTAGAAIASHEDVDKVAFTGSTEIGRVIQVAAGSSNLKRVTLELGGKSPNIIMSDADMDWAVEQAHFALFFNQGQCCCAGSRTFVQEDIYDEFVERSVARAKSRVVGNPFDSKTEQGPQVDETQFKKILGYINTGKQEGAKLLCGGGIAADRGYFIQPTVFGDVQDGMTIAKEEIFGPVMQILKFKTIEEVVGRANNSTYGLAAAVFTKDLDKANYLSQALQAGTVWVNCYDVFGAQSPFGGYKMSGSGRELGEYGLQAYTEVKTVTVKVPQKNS
The experiment can be described thus: Inhibition of recombinant human ALDH2 using propionaldehyde as substrate preincubated for 2 mins with NAD+ followed by substrate addition by UV-Vis spectrophotometric analysis.

The target of experiment [3] is T3, Aldehyde dehydrogenase X, mitochondrial (Homo sapiens) (UniProt P30837).
T3 sequence (whole entry): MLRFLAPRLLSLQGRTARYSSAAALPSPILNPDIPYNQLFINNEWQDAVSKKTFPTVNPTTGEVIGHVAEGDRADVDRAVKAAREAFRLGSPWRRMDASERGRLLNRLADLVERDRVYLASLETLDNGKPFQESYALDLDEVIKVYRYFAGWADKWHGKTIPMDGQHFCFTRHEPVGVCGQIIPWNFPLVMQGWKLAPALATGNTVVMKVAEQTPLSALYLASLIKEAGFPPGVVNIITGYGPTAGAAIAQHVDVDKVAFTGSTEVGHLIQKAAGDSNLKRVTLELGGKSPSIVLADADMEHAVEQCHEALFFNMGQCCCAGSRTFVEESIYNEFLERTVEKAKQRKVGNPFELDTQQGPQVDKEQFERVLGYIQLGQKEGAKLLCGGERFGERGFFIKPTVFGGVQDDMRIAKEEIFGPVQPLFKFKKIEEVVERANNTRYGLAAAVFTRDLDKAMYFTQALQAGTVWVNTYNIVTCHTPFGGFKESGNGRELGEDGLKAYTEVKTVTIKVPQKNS
The experiment can be described thus: Activation of recombinant human ALDH1B1 using propionaldehyde as substrate at 100 uM preincubated for 2 mins with NAD+ followed by substrate addition by UV-Vis spectrophotometric analysis.

For experiment [4], the target named is T4, Retinal dehydrogenase 2 (Homo sapiens) (UniProt O94788).
T4 sequence (whole entry): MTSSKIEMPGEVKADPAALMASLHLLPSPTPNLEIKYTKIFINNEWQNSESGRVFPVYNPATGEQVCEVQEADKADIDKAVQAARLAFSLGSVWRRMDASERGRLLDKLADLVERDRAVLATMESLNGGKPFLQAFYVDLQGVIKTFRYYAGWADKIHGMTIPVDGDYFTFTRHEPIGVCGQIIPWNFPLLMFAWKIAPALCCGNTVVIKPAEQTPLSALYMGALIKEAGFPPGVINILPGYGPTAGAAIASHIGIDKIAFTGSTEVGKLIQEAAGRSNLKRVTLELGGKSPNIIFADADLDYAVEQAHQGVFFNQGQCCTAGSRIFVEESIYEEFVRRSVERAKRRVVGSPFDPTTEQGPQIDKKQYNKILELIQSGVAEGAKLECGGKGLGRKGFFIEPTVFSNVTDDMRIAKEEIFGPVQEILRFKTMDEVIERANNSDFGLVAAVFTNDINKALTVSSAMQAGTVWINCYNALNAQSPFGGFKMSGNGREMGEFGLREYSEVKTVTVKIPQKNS
The experiment is described as follows: Activation of recombinant human ALDH1A2 using propionaldehyde as substrate at 100 uM preincubated for 2 mins with NAD+ followed by substrate addition by UV-Vis spectrophotometric analysis.

Experiment [5] deals with T5, Retinaldehyde dehydrogenase 3 (Homo sapiens, UniProt P47895).
T5 sequence (P47895 whole entry): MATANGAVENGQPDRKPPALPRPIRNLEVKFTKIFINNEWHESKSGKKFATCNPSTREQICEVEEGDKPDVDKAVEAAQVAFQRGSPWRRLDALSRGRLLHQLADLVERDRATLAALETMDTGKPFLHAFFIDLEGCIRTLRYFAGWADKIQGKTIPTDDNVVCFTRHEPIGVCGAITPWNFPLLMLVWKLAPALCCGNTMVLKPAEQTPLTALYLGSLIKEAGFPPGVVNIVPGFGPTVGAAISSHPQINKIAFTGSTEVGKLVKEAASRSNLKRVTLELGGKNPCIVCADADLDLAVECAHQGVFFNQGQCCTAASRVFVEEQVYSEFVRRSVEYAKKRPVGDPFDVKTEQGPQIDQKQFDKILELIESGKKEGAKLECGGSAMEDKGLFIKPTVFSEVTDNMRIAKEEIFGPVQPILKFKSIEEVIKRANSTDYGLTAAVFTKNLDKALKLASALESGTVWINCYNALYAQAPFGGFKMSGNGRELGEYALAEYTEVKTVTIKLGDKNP
The experiment is described as follows: Inhibition of recombinant human ALDH1A3 using propionaldehyde as substrate preincubated for 2 mins with NAD+ followed by substrate addition by UV-Vis spectrophotometric analysis.

One may read the pIC50 as the negative decadic logarithm of the IC50, by convention in mol/L.

Regarding `CC(C)CCn1c(CN(C)Cc2ccccc2)nc2c1c(=O)n(C)c(=O)n2C`, the Imax in experiment [1] was less than 70%. For the same compound, the pIC50 in experiment [2] is less than 4.00. Take `Cn1c(=O)c2c(nc(CN3CCC(C(N)=O)CC3)n2CCCc2ccccc2)n(C)c1=O`: the pIC50 in experiment [2] was less than 4.00.

Regarding `Cn1c(=O)c2c(nc(N3CCN(Cc4ccccc4)CC3)n2Cc2cccc(Cl)c2)n(C)c1=O`, the result in experiment [3] was Active. Regarding `CCCCn1c(Oc2ccc(C(=O)OC)cc2)nc2c1c(=O)n(C)c(=O)n2C`, the Imax in experiment [1] is less than 70%. For `Cn1c(=O)c2c(nc(N3CCOCC3)n2Cc2ccccc2F)n(C)c1=O`, the result in experiment [4] was Active. Regarding `CCCCn1c(CN2CCN(c3cccc(Cl)c3)CC2)nc2c1c(=O)n(C)c(=O)n2C`, the pIC50 in experiment [2] was less than 4.00; in experiment [5], less than 4.70. For the compound `CC(C)CCn1c(CN2CCN(C(=O)c3ccco3)CC2)nc2c1c(=O)n(C)c(=O)n2C`, the outcome in experiment [3] and in experiment [4] was Active. In the case of `CC(C)CCn1c(CN2CCOCC2)nc2c1c(=O)n(C)c(=O)n2C`, the pIC50 in experiment [2] is less than 4.00. For the compound `Cn1c(=O)c2c(nc(SCC(N)=O)n2Cc2ccccc2F)n(C)c1=O`, the Imax in experiment [1] is less than 70%. For the compound `CCCCn1c(CN2CCN(c3ccc(OC)cc3)CC2)nc2c1c(=O)n(C)c(=O)n2C`, in experiment [5], the pIC50 is less than 4.00.
